The subject of one series is Mus musculus. Description: Ex vivo binding affinity to amyloid beta (1 to 40) of APP/PS1 transgenic mouse brain at 10.3 nmol/kg, iv after 10 mins by autoradiography. The note with it: tested as the 3H-labelled form. It counts as functional, organism-based.
In series [1] the target is T1, Amyloid-beta precursor protein (Homo sapiens, UniProt P05067). The series can be described thus: Binding affinity to Abeta (1 to 40) in brain cortex of patient with Alzheimer's disease by autoradiography relative to non-specific unlabelled PIB binding. The conditions noted are these: tested as the 3H-labelled form. It counts as tissue-based.
Series [2] is described as follows: Lipophilicity, log D of the compound. It counts as physicochemical. The note with it: octanol/water.
Series [3] deals with T1, Amyloid-beta precursor protein. The series can be described thus: Displacement of [3H]PIB from human amyloid beta (1 to 40) after 30 mins by liquid scintillation counting. A general note: In a radioligand displacement assay an active substance lowers the binding of a labelled ligand.

Calls of active or inactive are those of the source. No cut-off for these calls is given here.

T1 sequence (P05067 whole entry): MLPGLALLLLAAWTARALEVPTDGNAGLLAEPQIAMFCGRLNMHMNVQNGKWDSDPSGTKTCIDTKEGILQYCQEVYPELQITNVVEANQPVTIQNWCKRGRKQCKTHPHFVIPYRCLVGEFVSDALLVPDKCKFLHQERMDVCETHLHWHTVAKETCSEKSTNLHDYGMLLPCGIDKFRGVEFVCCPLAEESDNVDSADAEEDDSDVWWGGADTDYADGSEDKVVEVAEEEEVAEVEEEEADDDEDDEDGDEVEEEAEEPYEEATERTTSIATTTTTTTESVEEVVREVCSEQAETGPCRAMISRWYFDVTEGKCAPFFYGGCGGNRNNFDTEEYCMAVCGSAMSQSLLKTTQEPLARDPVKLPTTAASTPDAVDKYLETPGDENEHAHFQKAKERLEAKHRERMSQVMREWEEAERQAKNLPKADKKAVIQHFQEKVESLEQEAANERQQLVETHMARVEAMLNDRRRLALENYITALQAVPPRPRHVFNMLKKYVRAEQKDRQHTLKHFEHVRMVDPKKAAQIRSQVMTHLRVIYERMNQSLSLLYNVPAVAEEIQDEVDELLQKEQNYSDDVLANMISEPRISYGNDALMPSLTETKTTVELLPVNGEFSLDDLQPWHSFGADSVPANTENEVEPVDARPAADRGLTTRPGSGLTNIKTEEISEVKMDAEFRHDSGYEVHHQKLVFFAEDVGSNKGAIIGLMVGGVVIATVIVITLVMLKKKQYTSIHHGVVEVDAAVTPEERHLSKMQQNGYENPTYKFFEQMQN

Consider `CNc1ccc(-c2nc3ccc(O)cc3o2)cn1`, for which the outcome (in the series with Mus musculus; in series [1]) was Active. One may read the logD as the decadic logarithm of the distribution of all forms, ionised or not, between an organic phase and buffer at a given pH. A high value points to a more lipophilic compound. What is called IC50 is the concentration that gives 50% inhibition. Read a high IC50 as lower potency. In the case of `[3H]N(c1ccc(-c2nc3ccc(O)cc3o2)cn1)C([3H])([3H])[3H]`, the logD in series [2] came out at 1.3. The same compound yielded an IC50 in series [3] of 182 nM.

`CNc1ccc(-c2cc3ccc(OC)cc3o2)cn1` gave a logD in series [2] of 3.8. In addition, in series [3], the IC50 was found to be 66 nM. For `[3H]C([3H])([3H])N(c1ncc(-c2nc3ccc(O)cc3o2)cn1)C([3H])([3H])[3H]` the same measures were 1.8 and 75 nM. With `COc1ccc2nc(-c3ccc(N(C)C)nc3)oc2c1`, in series [1], the result was inactive. `CNc1ncc(-c2nc3ccc(O)cc3s2)cn1` gave a logD in series [2] of 0.9. The same compound gave an IC50 in series [3] of 267 nM. For the compound `CNc1ccc(-c2nc3ccc(O)cc3s2)cn1`, the outcome (in the series with Mus musculus; in series [1]) was Active. Turning to `[3H]N(c1ccc(-c2nc3ccc(OC)cc3s2)cn1)C([3H])([3H])[3H]`, the logD in series [2] was found to be 3.2. This compound had an IC50 in series [3] of 58 nM. Take `CNc1ccc(-c2nc3ccc(O)cc3s2)cc1`: the result in the series on Mus musculus was Active. Regarding `[3H]C([3H])([3H])N(c1ccc(-c2nc3ccc(O)cc3o2)cn1)C([3H])([3H])[3H]`, in series [2], the logD worked out at 1.9. This compound also gave an IC50 in series [3] of 85 nM. For `COc1ccc2cc(-c3ccc(C(N)=O)nc3)oc2c1` the same measures were 1.7 and 60 nM. On to `CN(C)c1ncc(-c2nc3ccc(O)cc3s2)cn1`, for which, in series [2], the logD was determined as 2.2. The IC50 in series [3] was found to be 41 nM. Taken in the same sequence, the figures for `CNc1ccc(-c2nc3ccc(C(N)=O)cc3s2)cn1` were 0.5 and 85 nM. In series [2], `COc1ccc2cc(-c3ccc(C(N)=O)cn3)oc2c1` showed a logD of 2.8. The compound also came in with an IC50 in series [3] of 33 nM. Taken in the same sequence, the figures for `CNc1ccc(-c2nc3cc(O)ccc3s2)cn1` were 1.5 and 74 nM. Consider `COc1ccc2nc(-c3ccc(N(C)C)nc3)sc2c1`, for which the logD in series [2] stood at 4.2. In addition, the IC50 in series [3] was found to be 81 nM. Taken in the same sequence, the figures for `[3H]C([3H])([3H])N(c1ccc(-c2nc3ccc(OC)cc3o2)cn1)C([3H])([3H])[3H]` were 3.7 and 204 nM.

The compound `[3H]N(c1ccc(-c2nc3ccc(O)cc3s2)cn1)C([3H])([3H])[3H]` yielded a logD in series [2] of 1.8. The compound also gave an IC50 in series [3] of 58 nM.

In the case of `CN(C)c1ccc(-c2nc3ccc(O)cc3s2)cn1`, in series [1], the outcome was inactive.

For the compound `CNc1ccc(-c2nc3ccc(OC)cc3s2)cn1`, the outcome in series [1] was inactive. Consider `CNc1ccc(-c2cc3ccc(O)cc3o2)cn1`, for which, in series [2], the logD was found to be 2. Moreover, the IC50 in series [3] was found to be 45 nM. `[3H]C([3H])([3H])N(c1ccc(-c2nc3ccc(O)cc3s2)cn1)C([3H])([3H])[3H]`: the logD in series [2] came out at 2.4. Further, in series [3], the IC50 turned out to be 19 nM. Taken in the same sequence, the figures for `CNc1ccc2nc(-c3ccc(C(N)=O)nc3)sc2c1` were 1.7 and 35 nM. The compound `CNc1ccc(-c2nc3ccc(OC)cc3o2)cn1` displayed a logD in series [2] of 2.7.

Turning to `CN(C)c1ccc(-c2nc3cc(O)ccc3o2)cn1`, the logD in series [2] is 2.2. The IC50 in series [3] is 137 nM.

These data come from ChEMBL document CHEMBL1155386, “Synthesis and evaluation of 2-pyridylbenzothiazole, 2-pyridylbenzoxazole and 2-pyridylbenzofuran derivatives as 11C-PET imaging agents for beta-amyloid plaques” (Bioorg Med Chem Lett, 2010).
